Source: patent US8673950B2, “Dihydrooxazol-2-amine derivatives” (Hoffmann-LaRoche Inc., priority 2010, dated 2014)
Where a name gives a salt, the structure may show the parent alone.

Tests used:
[1] = target: mouse TAAR1 (Mus musculus (Mouse), UniProt Q923Y8); assay: Radioligand binding assay on mouse TAAR1; conditions: mouse TAAR1, membranes of stably transfected HEK-293 cells; first value of cell mouse/rat
Description: (§1) Construction of TAAR Expression Plasmids and Stably Transfected Cell Lines
(§2) For the construction of expression plasmids the coding sequences of human, rat and mouse TAAR 1 were amplified from genomic DNA essentially as described by Lindemann et al.. The Expand High Fidelity PCR System (Roche Diagnostics) was used with 1.5 mM Mg^2+ and purified PCR products were cloned into pCR2.1-TOPO cloning vector (Invitrogen) following the instructions of the manufacturer. PCR products were subcloned into the pIRESneo2 vector (BD Clontech, Palo Alto, Calif.), and expression vectors were sequence verified before introduction in cell lines.
(§3) HEK293 cells (ATCC # CRL-1573) were cultured essentially as described by Lindemann et al. (2005). For the generation of stably transfected cell lines HEK293 cells were transfected with the pIRESneo2 expression plasmids containing the TAAR coding sequences (described above) with Lipofectamine 2000 (Invitrogen) according to the instructions of the manufacturer, and 24 hrs post transfection the culture medium was supplemented with 1 mg/ml G418 (Sigma, Buchs, Switzerland). After a culture period of about 10 d clones were isolated, expanded and tested for responsiveness to trace amines (all compounds purchased from Sigma) with the cAMP Biotrak Enzyme immunoassay (EIA) System (Amersham) following the non-acetylation EIA procedure provided by the manufacturer.
Radioligand Binding Assay on Mouse TAAR1
(§4) Membrane Preparation and Radioligand Binding.
(§5) HEK-293 cells stably expressing mouse TAAR1 were maintained at 37° C. and 5% CO2 in DMEM high glucose medium, containing fetal calf serum (10%, heat inactivated for 30 min at 56° C.), penicillin/streptomycin (1%), and 375 μg/ml geneticin (Gibco). Cells were released from culture flasks using trypsin/EDTA, harvested, washed twice with ice-cold PBS (without Ca^2+ and Mg^2+), pelleted at 1'000 rpm for 5 min at 4° C., frozen and stored at −80° C. Frozen pellets were suspended in 20 ml HEPES-NaOH (20 mM, pH 7.4) containing 10 mM EDTA and homogenized with a Polytron (PT 6000, Kinematica) at 14'000 rpm for 20 s. The homogenate was centrifuged at 48'000×g for 30 min at 4° C. Subsequently, the supernatant was removed and discarded, and the pellet resuspended in 20 ml HEPES-NaOH (20 mM, pH 7.4) containing 0.1 mM EDTA using the Polytron (20 s at 14'000 rpm). This procedure was repeated and the final pellet resuspended in HEPES-NaOH containing 0.1 mM EDTA and homogenized using the Polytron. Typically, aliquots of 2 ml membrane portions were stored at −80° C. With each new membrane batch the dissociation constant (Kd) was determined via a saturation curve. The TAAR1 radioligand ^3[H]-(S)-4-[(ethyl-phenyl-amino)-methyl]-4,5-dihydro-oxazol-2-ylamine (described in WO 2008/098857) was used at a concentration equal to the calculated Kd value, that was usually around 0.7 nM, resulting in the binding of approximately 0.5% of the radioligand and a specific binding representing approximately 70% of the total binding. Nonspecific binding was defined as the amount of ^3[H]-(S)-4-[(ethyl-phenyl-amino)-methyl]-4,5-dihydro-oxazol-2-ylamine bound in the presence of 10 μM unlabeled ligand. All compounds were tested at a broad range of concentrations (10 μM to 10 μM) in duplicates. […] The 96 deep well plates were incubated for 1 hr at 4° C. Incubations were terminated by rapid filtration through Unifilter-96 plates (Packard Instrument Company) and glass filters GF/C (Perkin Elmer) presoaked for 1 hr in polyethylenimine (0.3%) and washed 3 times with 1 ml of cold binding buffer. After addition of 45 μl of Microscint 40 (PerkinElmer) the Unifilter-96 plate was sealed and after 1 hr the radioactivity counted using a TopCount Microplate Scintillation Counter (Packard Instrument Company).

[2] = target: rat TAAR1 (Rattus norvegicus (Rat), UniProt Q923Y9); assay: Radioligand binding assay on rat TAAR1; conditions: rat TAAR1, membranes of stably transfected HEK-293 cells; second value of cell mouse/rat
Chain of rat TAAR1 (Q923Y9 whole entry): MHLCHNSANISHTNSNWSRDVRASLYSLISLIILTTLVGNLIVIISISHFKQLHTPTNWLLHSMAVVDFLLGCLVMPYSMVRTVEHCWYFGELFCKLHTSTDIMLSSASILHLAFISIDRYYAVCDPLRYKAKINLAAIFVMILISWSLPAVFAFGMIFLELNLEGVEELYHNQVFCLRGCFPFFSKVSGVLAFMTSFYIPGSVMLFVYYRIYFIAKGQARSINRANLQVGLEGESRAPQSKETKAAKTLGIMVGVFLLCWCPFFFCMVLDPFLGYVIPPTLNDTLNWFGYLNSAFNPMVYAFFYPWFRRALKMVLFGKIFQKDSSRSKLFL
Description: as §1, §2, §3
Radioligand Binding Assay on Rat TAAR1
as §4
as §5, with “expressing rat” for “expressing mouse”, “curve. […]” for “curve. The TAAR1 radioligand ^3[H]-(S)-4-[(ethyl-phenyl-amino)-methyl]-4,5-dihydro-oxazol-2-ylamine (described in WO 2008/098857) was used at a concentration equal to the calculated Kd value, that was usually around 0.7 nM, resulting in the binding of approximately 0.5% of the radioligand and a specific binding representing approximately 70% of the total binding.”, “(10 pM” for “(10 μM”

Chain of mouse TAAR1 (Q923Y8 whole entry): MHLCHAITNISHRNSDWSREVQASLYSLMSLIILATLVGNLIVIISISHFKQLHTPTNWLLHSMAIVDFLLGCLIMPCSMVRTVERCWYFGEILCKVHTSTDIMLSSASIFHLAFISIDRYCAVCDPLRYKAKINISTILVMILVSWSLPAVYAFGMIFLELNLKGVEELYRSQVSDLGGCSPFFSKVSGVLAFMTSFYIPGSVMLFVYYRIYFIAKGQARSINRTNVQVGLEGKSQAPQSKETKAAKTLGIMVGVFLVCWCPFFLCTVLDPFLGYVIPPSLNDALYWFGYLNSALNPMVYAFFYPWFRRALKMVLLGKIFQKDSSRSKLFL

SMILES	Ki [1]	Ki [2]
NC1=N[C@@H](CCc2ccc(Nc3ncc(OCC(F)(F)F)cn3)cc2)CO1 [Example 73, (S)-4-(4-(5-(2,2,2-Trifluoroethoxy)pyrimidin-2-ylamino)phenethyl)-4,5-dihydrooxazol-2-amine]	0.02 µM	0.0028 µM
Cc1ccc(Nc2ccc(CC[C@H]3COC(N)=N3)cc2)nc1 [Example 29, {4-[2-((8)-2-Amino-4,5-dihydro-oxazol-4-yl)-ethyl]-phenyl}-(5-methyl-pyridin-2-yl)-amine]	0.0306 µM	0.0035 µM
CC(C)c1cnc(Nc2ccc(CC[C@H]3COC(N)=N3)cc2)nc1 [Example 61, (S)-4-(4-(5-Isopropylpyrimidin-2-ylamino)phenethyl)-4,5-dihydrooxazol-2-amine]	0.0007 µM	0.0002 µM
NC1=N[C@@H](CCc2ccc(Nc3ccc(C(F)(F)F)cn3)cc2)CO1 [Example 11, {4-[2-((S)-2-Amino-4,5-dihydro-oxazol-4-yl)-ethyl]-phenyl}-(5-trifluoromethyl-pyridin-2-yl)-amine]	0.0002 µM	0.0004 µM
NC1=N[C@@H](CCc2ccc(N[C@H](c3ccc(Cl)cc3)C(F)(F)F)cc2)CO1 [Example 65, (−)-(S)-4-(4-((R)-1-(4-chlorophenyl)-2,2,2-trifluoroethylamino)phenethyl)-4,5-dihydrooxazol-2-amine]	0.0244 µM	0.0032 µM
Cc1cc(CC[C@H]2COC(N)=N2)ccc1Nc1ncc(Cl)cn1 [Example 72, {4-[2-((S)-2-Amino-4,5-dihydro-oxazol-4-yl)-ethyl]-2-methyl-phenyl}-(5-chloro-pyrimidin-2-yl)-amine]	0.0019 µM	0.0007 µM
NC1=N[C@@H](CCc2ccc(Nc3ncc(C(F)(F)F)cn3)cc2)CO1 [Example 56, (S)-4-(4-(5-(Trifluoromethyl)pyrimidin-2-ylamino)phenethyl)-4,5-dihydrooxazol-2-amine]	0.0019 µM	0.0039 µM
NC1=N[C@@H](CCc2ccc(Nc3ccc(C(F)(F)F)cc3)cc2)CO1 [Example 8, (S)-4-{2-[4-(4-Trifluoromethyl-phenylamino)-phenyl]-ethyl}-4,5-dihydro-oxazol-2-ylamine]	0.0002 µM	0.0002 µM
NC1=N[C@@H](CCc2ccc(Nc3ccccc3)cc2)CO1 [Example 13, (S)-4-[2-(4-Phenylamino-phenyl)-ethyl]-4,5-dihydro-oxazol-2-ylamine]	0.0013 µM	0.0001 µM
N#Cc1cnc(Nc2ccc(CC[C@H]3COC(N)=N3)cc2)cn1 [Example 39, 5-{4-[2-((8)-2-Amino-4,5-dihydro-oxazol-4-yl)-ethyl]-phenylamino}-pyrazine-2-carbonitrile]	0.0128 µM	0.0043 µM
NC1=N[C@@H](CCc2ccc(N[C@@H](c3ccc(Cl)cc3)C(F)(F)F)cc2)CO1 [Example 64, (+)-(S)-4-(4-((S)-1-(4-Chlorophenyl)-2,2,2-trifluoroethylamino)phenethyl)-4,5-dihydrooxazol-2-amine]	0.063 µM	0.002 µM
COc1cccc(C(Nc2ccc(CC[C@H]3COC(N)=N3)cc2)C(F)(F)F)n1 (stereo partly drawn) [Example 70, (4S)-4-(4-(2,2,2-Trifluoro-1-(6-methoxypyridin-2-yl)ethylamino)phenethyl)-4,5-dihydrooxazol-2-amine]	0.134 µM	0.0205 µM
NC1=N[C@@H](CCc2ccc(Nc3ccncn3)cc2)CO1 [Example 35, (S)-4-(4-(Pyrimidin-4-ylamino)phenethyl)-4,5-dihydrooxazol-2-amine hydrochloride]	0.0551 µM	0.0023 µM
Cc1nccc(Nc2ccc(CC[C@H]3COC(N)=N3)cc2)n1 [Example 34, {4-[2-((S)-2-Amino-4,5-dihydro-oxazol-4-yl)-ethyl]-phenyl}-(2-methyl-pyrimidin-4-yl)-amine]	0.0387 µM	0.0026 µM
N#Cc1ccc(N(c2ccc(CC[C@H]3COC(N)=N3)cc2)c2ccc(C#N)cn2)nc1 [Example 12, (S)-6,6′-(4-(2-(2-Amino-4,5-dihydrooxazol-4-yl)ethyl)phenylazanediyl)dinicotinonitrile]	0.111 µM	
NC1=N[C@@H](CCc2ccc(Nc3cncc(Cl)n3)cc2)CO1 [Example 27, {4-[2-((S)-2-Amino-4,5-dihydro-oxazol-4-yl)-ethyl]-phenyl}-(6-chloro-pyrazin-2-yl)-amine]	0.0182 µM	0.004 µM
N#Cc1ccc(Nc2ccc(CC[C@H]3COC(N)=N3)cc2)nc1 [Example 16, 6-{4-[2-((S)-2-Amino-4,5-dihydro-oxazol-4-yl)-ethyl]-phenylamino}-nicotinonitrile]	0.0015 µM	0.0004 µM
NC1=N[C@@H](CCc2ccc(Nc3cccc4cccc(Cl)c34)cc2)CO1 [Example 5, (S)-4-(4-(8-Chloronaphthalen-1-ylamino)phenethyl)-4,5-dihydrooxazol-2-amine]	0.0262 µM	0.0033 µM
NC1=N[C@@H](CCc2ccc(NC(c3ccc(C(F)(F)F)cc3)C(F)(F)F)cc2)CO1 (stereo partly drawn) [Example 67, (4S)-4-(4-(2,2,2-Trifluoro-1-(4-(trifluoromethyl)phenyl)ethylamino)phenethyl)-4,5-dihydrooxazol-2-amine]	0.0412 µM	0.0084 µM
C[C@@H]1OC(N)=N[C@H]1CCc1ccc(Nc2ncc(Cl)cn2)cc1 [Example 52, {4-[2-((4S,5S)-2-Amino-5-methyl-4,5-dihydro-oxazol-4-yl)-ethyl]-phenyl}-(5-chloro-pyrimidin-2-yl)-amine]	0.0046 µM	0.0006 µM
NC1=N[C@@H](CCc2ccc(Nc3ccc(Cl)cc3F)cc2)CO1 [Example 7, (S)-4-{2-[4-(4-Chloro-2-fluoro-phenylamino)-phenyl]-ethyl}-4,5-dihydro-oxazol-2-ylamine]	0.0017 µM	0.0001 µM
NC1=N[C@@H](CCc2ccc(NC(c3ccc(Br)cn3)C(F)(F)F)cc2)CO1 (stereo partly drawn) [Example 62, (S)-4-(2-{4-[1-(5-Bromo-pyridin-2-yl)-2,2,2-trifluoro-ethylamino]-phenyl}-ethyl)-4,5-dihydro-oxazol-2-ylamine]	0.0623 µM	0.0132 µM
